This is an account of results in patent publication EP0260744B1, “(1H-imidazol-1-ylmethyl) substituted benzimidazole derivatives” (JANSSEN PHARMACEUTICA N.V., priority 1986, dated 1988).

A value given as a limit tells only on which side of the number the result lay.

The assay has as its system Plasma testosterone concentrations. The assay can be described thus: Testosterone in vivo test. The following applies: Rattus norvegicus, 2 h; male rats, oral; LHRH-analogue i.m. after one hour; plasma testosterone two hours after administration; 50% inhibition relative to placebo.
Method: Male rats were administered orally a test compound as a solution or as a suspension in aqueous medium. One hour following drug or placebo administration, a luteinizing hormone releasing hormone- analogue was injected intramuscularly and an anaesthetic was administered intraperitonally. Two hours after the oral administration of the test compound the rats were decapitated, and the blood was collected on heparine. Plasma testosterone concentrations were measured by standard radio-immunological procedures. A 50% inhibition relative to the placebo values was considered as the criterion of testosterone inhibitory activity. ED50-values were determined by probit analysis.
Regarding `Cn1cnc2cc(C(c3ccccc3)n3ccnc3)ccc21` (centres unmarked) [Compound 28], it took a dose of 2.5 mg/kg to reach the 50% effect level (ED50).
Under `Cn1c(-c2ccccc2)nc2ccc(C(c3ccccc3)n3ccnc3)cc21` (centres unmarked) [Compound 30] stands 2.5 mg/kg; under `c1csc(C(c2ccc3[nH]c(-c4cscn4)nc3c2)n2ccnc2)c1` (centres unmarked) [Compound 34], 2.5 mg/kg.
Under `COc1ccc(-c2nc3cc(C(c4ccccc4)n4ccnc4)ccc3[nH]2)cc1` (centres unmarked) [Compound 49] stands below 2.5 mg/kg; under `c1cn(Cc2ccc3[nH]c(-c4cscn4)nc3c2)cn1` [Compound 51], 2.5 mg/kg; under `Nc1ncccc1-c1nc2cc(Cn3ccnc3)ccc2[nH]1` [Compound 53], 2.5 mg/kg.
Under `CCC(c1ccc2[nH]c(-c3ccccc3)nc2c1)n1ccnc1` (centres unmarked) [Compound 54] stands 2.5 mg/kg; under `c1ccc2c(Cc3nc4cc(Cn5ccnc5)ccc4[nH]3)c[nH]c2c1` [Compound 71], 2.5 mg/kg; under `CC(c1ccc2[nH]c(C(F)F)nc2c1)n1ccnc1` (centres unmarked) [Compound 78], below 2.5 mg/kg.
`CCC(c1ccc2[nH]c(C(F)(F)F)nc2c1)n1ccnc1` (centres unmarked) [Compound 83, 5-[1-(1 H-imidazol-1-yl)propyl]-2-(trifluoromethyl)-1 H-benzimidazole] displayed a 50% effective dose (ED50) below 2.5 mg/kg.
With `CC(C)C(c1ccc2[nH]c(C(F)(F)F)nc2c1)n1ccnc1` (centres unmarked) [Compound 84, 5-[1-(1 H-imidazol-1-yl)-2-methylpropyl]-2-(trifluoromethyl)-1 H-benzimidazole ethanedioate(1:1).hemihydrate], the 50% effective dose (ED50) was below 2.5 mg/kg.
With `Fc1ccccc1-c1nc2ccc(C(c3ccccc3)n3ccnc3)cc2[nH]1` (centres unmarked) [Compound 92, 2-(2-fluorophenyl)-5-[(1 H-imidazol-1-yl)phenylmethyl]-1H-benzimidazole ethanedioate(2:3)] the figure was below 2.5 mg/kg.
With `Clc1cccc(C(c2ccc3[nH]cnc3c2)n2ccnc2)c1` (centres unmarked) [Compound 93, 5-[(3-chlorophenyl)-(1 H-imidazol-1-yl)methyl]-1 H-benzimidazole] the figure was 2.5 mg/kg.
Under `c1ccc(Cn2cnc3ccc(Cn4ccnc4)cc32)cc1` [Compound 102] stands below 2.5 mg/kg; under `c1ccc(C(c2ccc3[nH]cnc3c2)n2ccnc2)cc1` (centres unmarked) [Compound 111, 5-[(1 H-imidazol-1-yl)phenylmethyl]-1 H-benzimidazole], below 10 mg/kg.
In the case of `c1cncc(C(c2ccc3[nH]cnc3c2)n2ccnc2)c1` (centres unmarked) [Compound 112, 5-[(1 H-imidazol-1-yl)(3-pyridinyl)methyl]-1 H-benzimidazole], the 50% effective dose (ED50) came to 2.5 mg/kg.
With `c1csc(C(c2ccc3[nH]cnc3c2)n2ccnc2)c1` (centres unmarked) [Compound 113, 5-[(1H-imidazol-1-yl)(2-thienyl)methyl]-1H-benzimidazole] the figure was below 10 mg/kg; with `COc1nc2cc(C(c3ccccc3)n3ccnc3)ccc2[nH]1` (centres unmarked) [Compound 115, 5-[(1 H-imidazol-1-yl)phenylmethyl]-2-methoxy-1 H-benzimidazole], 2.5 mg/kg; with `CCC(c1ccc2[nH]cnc2c1)n1ccnc1.Cl.Cl` (centres unmarked) [Compound 119, 5-[1-(1 H-imidazol-1-yl)propyl]-1 H-benzimidazole dihydrochloride], 2.5 mg/kg.
Under `Cc1nc2cc(C(c3cccc(Cl)c3)n3ccnc3)ccc2[nH]1` (centres unmarked) [Compound 122, 5-[(3-chlorophenyl)(1 H-imidazol-1-yl)methyl]-2-methyl-1 H-benzimidazole] stands 2.5 mg/kg; under `Cc1nc2cc(C(c3cccs3)n3ccnc3)ccc2[nH]1` (centres unmarked) [Compound 125], 2.5 mg/kg; under `Cc1nc2cc(C(c3ccc(Cl)cc3Cl)n3ccnc3)ccc2[nH]1` (centres unmarked) [Compound 127], 10 mg/kg.
With `CCCCCc1nc2cc(Cn3ccnc3)ccc2[nH]1` [Compound 133] the figure was below 2.5 mg/kg.
For the molecule `CCCCCc1nc2cc(C(c3ccccc3)n3ccnc3)ccc2[nH]1` (centres unmarked) [Compound 136], the ED50 is below 2.5 mg/kg.
Molecule `Fc1cccc(-c2nc3cc(Cn4ccnc4)ccc3[nH]2)c1` [Compound 141] gave an ED50 of 2.5 mg/kg.
Under `Fc1ccc(-c2nc3cc(Cn4ccnc4)ccc3[nH]2)cc1` [Compound 142] stands 2.5 mg/kg.
Under `Cc1nc2cc(C(C(C)C)n3ccnc3)ccc2n1C` (centres unmarked) [Compound 160] stands 2.5 mg/kg.
With `Cc1ccc(-c2nc3cc(C(c4ccccc4)n4ccnc4)ccc3[nH]2)cc1` (centres unmarked) [Compound 173] the figure was below 2.5 mg/kg; with `Fc1ccc(-c2nc3cc(C(c4ccccc4)n4ccnc4)ccc3[nH]2)cc1` (centres unmarked) [Compound 174], below 2.5 mg/kg; with `Cc1nc2cc(C(C(C)C)n3ccnc3)ccc2[nH]1` (centres unmarked) [Compound 182], 2.5 mg/kg.
In turn, `CC(c1ccc2[nH]c(-c3cccnc3)nc2c1)n1ccnc1` (centres unmarked) [Compound 189, 5-[1-(1H-imidazol-1-yl)ethyl]-2-(3-pyridinyl)-1H-benzimidazole] showed an ED50 of 2.5 mg/kg.
Under `c1ccc(C(c2ccc3[nH]c(-c4cccnc4)nc3c2)n2ccnc2)cc1` (centres unmarked) [Compound 190, 5-[(1 H-imidazol-1-yl)phenylmethyl]-2-(3-pyridinyl)-1H-benzimidazole] stands 10 mg/kg.
With `Cc1nc2cc(C(C)n3ccnc3)ccc2[nH]1.Cl.Cl` (centres unmarked) [Compound 206, 5-[1-(1 H-imidazol-1-yl)ethyl]-2-methyl-1 H-benzimidazole dihydrochloride] the figure was below 2.5 mg/kg; with `Cn1c(O)nc2cc(Cn3ccnc3)ccc21` [Compound 222, 5-(1 H-imidazol-1-ylmethyl)-1-methyl-1 H-benzimidazol-2-ol], below 2.5 mg/kg; with `COn1c(-c2ccccc2)nc2ccc(Cn3ccnc3)cc21` [Compound 227, 6-(1 H-imidazol-1-ylmethyl)-1-methoxy-2-phenyl-1 H-benzimidazole], 2.5 mg/kg.
Consider `COn1c(-c2cccnc2)nc2ccc(Cn3ccnc3)cc21` [Compound 229], for which the ED50 came to 2.5 mg/kg.
In turn, `COn1c(C)nc2ccc(C(c3ccccc3)n3ccnc3)cc21` (centres unmarked) [Compound 231] had a median effective dose (ED50) of 2.5 mg/kg.
Under `COn1c(-c2ccc(F)cc2)nc2ccc(C(C)n3ccnc3)cc21` (centres unmarked) [Compound 235] stands 2.5 mg/kg.

A word on the ED50: it is the midpoint of the dose-response relation.
